From paper PMC6081437, “The potency of the broad spectrum bacteriocin, bactofencin A, against staphylococci is highly dependent on primary structure, N-terminal charge and disulphide formation” (Scientific Reports, 2018)
Bridge positions count the residues as written; N and C are the ends. Square brackets hold non-standard residues; d marks the D form. Ends that are not written are not given here. Peptide text beside a SMILES is read from it.

Tested on: S. aureus DPC5246
Assay type: cell-based, Staphylococcus aureus
Conditions: for Activity (Minimum Inhibitory Concentration, MIC): DPC5246, pH 6.8; for fold reduction in activity compared with bactofencin A (wild type): S. aureus DPC5246, agar well diffusion MIC
Protocol: Peptides were resuspended at 1000 µM in 50 mM sodium phosphate buffer pH 6.8 and checked for purity by MALDI-TOF-MS. Peptides were serially diluted 1 in 4 to give a dilution series of 250, 62.50, 15.63, 3.91, 0.98 and 0.24 µM and assayed by the agar well diffusion assay described by Ryan et al.[19]. Briefly, 50 µl aliquots of each peptide concentration were plated on a S. aureus DPC5246 indicator plate and the plate incubated at 37 °C. Peptide activity (Minimum Inhibitory Concentration (MIC)) was taken as the lowest concentration of peptide to give a zone of inhibition. All assays were performed in triplicate. The dilution series values were rounded to the nearest whole number to give 1000, 250, 63, 16, 4, 1 and 0.25 µM and data is colour coded for ease of interpretation.

Molecule | Activity (Minimum Inhibitory Concentration, MIC) [µM] | activity compared with bactofencin A, in words (S. aureus DPC5246, agar well diffusion) | fold reduction in activity compared with bactofencin A (wild type) [fold]
CSCC[C@@H]1NC(=O)CNC(=O)[C@H]([C@@H](C)O)NC(=O)[C@@H]2CCCN2C(=O)[C@H](CCSC)NC(=O)CNC(=O)[C@H](CC(N)=O)NC(=O)[C@H](CC(N)=O)NC(=O)[C@H](Cc2ccc(O)cc2)NC(=O)[C@H](C(C)C)NC(=O)[C@H](CCCNC(=N)N)NC(=O)[C@@H](NC(=O)[C@H](CCCNC(=N)N)NC(=O)[C@H](Cc2c[nH]cn2)NC(=O)[C@H](CCCCN)NC(=O)[C@H](CCCCN)NC(=O)[C@@H](N)CCCNC(=N)N)CSSC[C@@H](C(=O)O)NC(=O)[C@H](Cc2c[nH]c3ccccc23)NC(=O)[C@H](CCCNC(=N)N)NC(=O)[C@H](Cc2ccc(O)cc2)NC1=O [R2-C22] (H-RKKHRCRVYNNGMPTGMYRWC-OH; disulfide 6-21; N-terminus assumed) | 1 | no effect on activity | 
CSCC[C@@H]1NC(=O)CNC(=O)[C@H]([C@@H](C)O)NC(=O)[C@@H]2CCCN2C(=O)[C@H](CCSC)NC(=O)CNC(=O)[C@H](CC(N)=O)NC(=O)[C@H](CC(N)=O)NC(=O)[C@H](Cc2ccc(O)cc2)NC(=O)[C@H](C)NC(=O)[C@H](CCCNC(=N)N)NC(=O)[C@@H](NC(=O)[C@H](CCCNC(=N)N)NC(=O)[C@H](Cc2c[nH]cn2)NC(=O)[C@H](CCCCN)NC(=O)[C@H](CCCCN)NC(=O)[C@H](CCCNC(=N)N)NC(=O)[C@@H](N)CCCCN)CSSC[C@@H](C(=O)O)NC(=O)[C@H](Cc2c[nH]c3ccccc23)NC(=O)[C@H](CCCNC(=N)N)NC(=O)[C@H](Cc2ccc(O)cc2)NC1=O [V9A] (H-KRKKHRCRAYNNGMPTGMYRWC-OH; disulfide 7-22) | 4 |  | 
CSCC[C@@H]1NC(=O)CNC(=O)[C@H]([C@@H](C)O)NC(=O)[C@@H]2CCCN2C(=O)[C@H](CCSC)NC(=O)CNC(=O)[C@H](CC(N)=O)NC(=O)[C@H](CC(N)=O)NC(=O)[C@H](Cc2ccc(O)cc2)NC(=O)[C@H](C(C)C)NC(=O)[C@H](CCCNC(=N)N)NC(=O)[C@@H](NC(=O)[C@H](CCCNC(=N)N)NC(=O)[C@H](Cc2c[nH]cn2)NC(=O)[C@H](CCCCN)NC(=O)[C@H](CCCCN)NC(=O)[C@H](CCCNC(=N)N)NC(=O)[C@H](C)N)CSSC[C@@H](C(=O)O)NC(=O)[C@H](Cc2c[nH]c3ccccc23)NC(=O)[C@H](CCCNC(=N)N)NC(=O)[C@H](Cc2ccc(O)cc2)NC1=O [K1A] (H-ARKKHRCRVYNNGMPTGMYRWC-OH; disulfide 7-22) | 1 |  | 
CSCC[C@@H]1NC(=O)CNC(=O)[C@H]([C@@H](C)O)NC(=O)[C@@H]2CCCN2C(=O)[C@H](CCSC)NC(=O)[C@H](C)NC(=O)[C@H](CC(N)=O)NC(=O)[C@H](CC(N)=O)NC(=O)[C@H](Cc2ccc(O)cc2)NC(=O)[C@H](C(C)C)NC(=O)[C@H](CCCNC(=N)N)NC(=O)[C@@H](NC(=O)[C@H](CCCNC(=N)N)NC(=O)[C@H](Cc2c[nH]cn2)NC(=O)[C@H](CCCCN)NC(=O)[C@H](CCCCN)NC(=O)[C@H](CCCNC(=N)N)NC(=O)[C@@H](N)CCCCN)CSSC[C@@H](C(=O)O)NC(=O)[C@H](Cc2c[nH]c3ccccc23)NC(=O)[C@H](CCCNC(=N)N)NC(=O)[C@H](Cc2ccc(O)cc2)NC1=O [G13A] (H-KRKKHRCRVYNNAMPTGMYRWC-OH; disulfide 7-22) | 16 |  | 
CSCC[C@@H]1NC(=O)CNC(=O)[C@H]([C@@H](C)O)NC(=O)[C@@H]2CCCN2C(=O)[C@H](CCSC)NC(=O)CNC(=O)[C@H](CC(N)=O)NC(=O)[C@H](CC(N)=O)NC(=O)[C@H](Cc2ccc(O)cc2)NC(=O)[C@H](C(C)C)NC(=O)[C@H](CCCNC(=N)N)NC(=O)[C@@H](NC(=O)[C@H](CCCNC(=N)N)NC(=O)[C@H](Cc2c[nH]cn2)NC(=O)[C@H](CCCCN)NC(=O)[C@H](CCCCN)NC(=O)[C@H](C)NC(=O)[C@@H](N)CCCCN)CSSC[C@@H](C(=O)O)NC(=O)[C@H](Cc2c[nH]c3ccccc23)NC(=O)[C@H](CCCNC(=N)N)NC(=O)[C@H](Cc2ccc(O)cc2)NC1=O [R2A] (H-KAKKHRCRVYNNGMPTGMYRWC-OH; disulfide 7-22) | 1 |  | 
CSCC[C@@H]1NC(=O)CNC(=O)[C@H]([C@@H](C)O)NC(=O)[C@@H]2CCCN2C(=O)[C@H](CCSC)NC(=O)CNC(=O)[C@H](CC(N)=O)NC(=O)[C@H](CC(N)=O)NC(=O)[C@H](C)NC(=O)[C@H](C(C)C)NC(=O)[C@H](CCCNC(=N)N)NC(=O)[C@@H](NC(=O)[C@H](CCCNC(=N)N)NC(=O)[C@H](Cc2c[nH]cn2)NC(=O)[C@H](CCCCN)NC(=O)[C@H](CCCCN)NC(=O)[C@H](CCCNC(=N)N)NC(=O)[C@@H](N)CCCCN)CSSC[C@@H](C(=O)O)NC(=O)[C@H](Cc2c[nH]c3ccccc23)NC(=O)[C@H](CCCNC(=N)N)NC(=O)[C@H](Cc2ccc(O)cc2)NC1=O [Y10A] (H-KRKKHRCRVANNGMPTGMYRWC-OH; disulfide 7-22) | 4 |  | 
CSCC[C@@H]1NC(=O)CNC(=O)[C@H]([C@@H](C)O)NC(=O)[C@@H]2CCCN2C(=O)[C@H](CCSC)NC(=O)CNC(=O)[C@H](CC(N)=O)NC(=O)[C@H](C)NC(=O)[C@H](Cc2ccc(O)cc2)NC(=O)[C@H](C(C)C)NC(=O)[C@H](CCCNC(=N)N)NC(=O)[C@@H](NC(=O)[C@H](CCCNC(=N)N)NC(=O)[C@H](Cc2c[nH]cn2)NC(=O)[C@H](CCCCN)NC(=O)[C@H](CCCCN)NC(=O)[C@H](CCCNC(=N)N)NC(=O)[C@@H](N)CCCCN)CSSC[C@@H](C(=O)O)NC(=O)[C@H](Cc2c[nH]c3ccccc23)NC(=O)[C@H](CCCNC(=N)N)NC(=O)[C@H](Cc2ccc(O)cc2)NC1=O [N11A] (H-KRKKHRCRVYANGMPTGMYRWC-OH; disulfide 7-22) | 16 |  | 
CSCC[C@@H]1NC(=O)CNC(=O)[C@H]([C@@H](C)O)NC(=O)[C@@H]2CCCN2C(=O)[C@H](CCSC)NC(=O)CNC(=O)[C@H](C)NC(=O)[C@H](CC(N)=O)NC(=O)[C@H](Cc2ccc(O)cc2)NC(=O)[C@H](C(C)C)NC(=O)[C@H](CCCNC(=N)N)NC(=O)[C@@H](NC(=O)[C@H](CCCNC(=N)N)NC(=O)[C@H](Cc2c[nH]cn2)NC(=O)[C@H](CCCCN)NC(=O)[C@H](CCCCN)NC(=O)[C@H](CCCNC(=N)N)NC(=O)[C@@H](N)CCCCN)CSSC[C@@H](C(=O)O)NC(=O)[C@H](Cc2c[nH]c3ccccc23)NC(=O)[C@H](CCCNC(=N)N)NC(=O)[C@H](Cc2ccc(O)cc2)NC1=O [N12A] (H-KRKKHRCRVYNAGMPTGMYRWC-OH; disulfide 7-22) | 4 |  | 
KRKKHRCRVYNNGMPTGMYRWA-OH [C22A] | 63 |  | 63
CSCC[C@@H]1NC(=O)CNC(=O)[C@H]([C@@H](C)O)NC(=O)[C@@H]2CCCN2C(=O)[C@H](CCSC)NC(=O)CNC(=O)[C@H](CC(N)=O)NC(=O)[C@H](CC(N)=O)NC(=O)[C@H](Cc2ccc(O)cc2)NC(=O)[C@H](C(C)C)NC(=O)[C@@H](CCCNC(=N)N)NC(=O)[C@@H](NC(=O)[C@H](CCCNC(=N)N)NC(=O)[C@H](Cc2c[nH]cn2)NC(=O)[C@H](CCCCN)NC(=O)[C@H](CCCCN)NC(=O)[C@H](CCCNC(=N)N)NC(=O)[C@@H](N)CCCCN)CSSC[C@@H](C(=O)O)NC(=O)[C@H](Cc2c[nH]c3ccccc23)NC(=O)[C@H](CCCNC(=N)N)NC(=O)[C@H](Cc2ccc(O)cc2)NC1=O [R8Rd] (H-KRKKHRC[dR]VYNNGMPTGMYRWC-OH; disulfide 7-22; N-terminus assumed) | 63 |  | 63
CSCC[C@@H]1NC(=O)CNC(=O)[C@H]([C@@H](C)O)NC(=O)[C@@H]2CCCN2C(=O)[C@H](CCSC)NC(=O)CNC(=O)[C@H](CC(N)=O)NC(=O)[C@H](CC(N)=O)NC(=O)[C@H](Cc2ccc(O)cc2)NC(=O)[C@H](C(C)C)NC(=O)[C@H](CCCNC(=N)N)NC(=O)[C@@H](NC(=O)[C@H](CCCNC(=N)N)NC(=O)[C@H](Cc2c[nH]cn2)NC(=O)[C@H](CCCCN)NC(=O)[C@H](CCCCN)NC(=O)[C@H](CCCNC(=N)N)NC(=O)[C@@H](N)CCCCN)CSSC[C@H](C(=O)O)NC(=O)[C@H](Cc2c[nH]c3ccccc23)NC(=O)[C@H](CCCNC(=N)N)NC(=O)[C@H](Cc2ccc(O)cc2)NC1=O [C22Cd] (H-KRKKHRCRVYNNGMPTGMYRW[dC]-OH; disulfide 7-22; N-terminus assumed) | 4 |  | 
CSCC[C@@H]1NC(=O)CNC(=O)[C@H]([C@@H](C)O)NC(=O)[C@@H]2CCCN2C(=O)[C@H](CCSC)NC(=O)CNC(=O)[C@H](CC(N)=O)NC(=O)[C@H](CC(N)=O)NC(=O)[C@@H](Cc2ccc(O)cc2)NC(=O)[C@H](C(C)C)NC(=O)[C@H](CCCNC(=N)N)NC(=O)[C@@H](NC(=O)[C@H](CCCNC(=N)N)NC(=O)[C@H](Cc2c[nH]cn2)NC(=O)[C@H](CCCCN)NC(=O)[C@H](CCCCN)NC(=O)[C@H](CCCNC(=N)N)NC(=O)[C@@H](N)CCCCN)CSSC[C@@H](C(=O)O)NC(=O)[C@H](Cc2c[nH]c3ccccc23)NC(=O)[C@H](CCCNC(=N)N)NC(=O)[C@H](Cc2ccc(O)cc2)NC1=O [Y10Yd] (H-KRKKHRCRV[dY]NNGMPTGMYRWC-OH; disulfide 7-22; N-terminus assumed) | > 1000 |  | 
